This data set can be described thus: Solubility of retigabine in aqueous solution at varying pH. Type of data set: physicochemical. The source says:
Solubility was low in pH ranges of between pH 4.0 to pH 12.0.

In general, solubility refers to how much of the substance goes into solution per volume.

≈ marks a conversion by molar mass, not a printed value. Where two headings read alike, the source gives them in different places.

`CCOC(=O)Nc1ccc(NCc2ccc(F)cc2)cc1N` [retigabine, N-(2-amino-4-(fluorobenzylamino)-phenyl)carbamic acid ethyl ester]: under “above pH 3 (FIG. 5)”, the “solubility as a function of pH” value is listed as “drops off precipitously”. In addition, the solubility entry reads like this: (pH 3.0, aqueous conditions at 37° C.) “nearly complete insolubility”; (pH 4.0 to pH 12.0, aqueous solution at 37° C.) “low”; (simulated gastric fluid, pH 1.5, aqueous solution at 37° C., maximum solubility, read-out: solubility) ~16 mg/mL (≈ 52.7 mM); (simulated gastric fluid, pH 2.0, aqueous solution at 37° C., read-out: solubility) < 4 mg/mL.

The values are drawn from patent US20100323016A1, “MODIFIED RELEASE FORMULATION AND METHODS OF USE” (priority 2008, published 2010).
